Reference: the NIST ThermoML archive (doi:10.1021/acs.jced.7b00654)

Tests used:
[1] = xn = mol fraction of the nth substance listed; settings: 96.7 kPa, Liquid, Vibrating tube method
[2] = 96.7 kPa, Vibrating tube method

CN(C)C=O [dimethylformamide] + CCCCn1cc[n+](C)c1.[Cl-]
[1], x2 = 0
Settings	mass density [kg/m3]
303.15 K	939.18
308.15 K	934.41
313.15 K	929.64
318.15 K	924.86
323.15 K	920.07
328.15 K	915.26
333.15 K	910.44
338.15 K	905.6
343.15 K	900.74
348.15 K	895.87
353.15 K	890.98

CCCCn1cc[n+](C)c1.[Cl-] [1-butyl-3-methylimidazolium chloride] + c1ccncc1
[1], x1 = 1
Settings	mass density [kg/m3]
303.15 K	1079.41
308.15 K	1076.58
313.15 K	1073.78
318.15 K	1070.99
323.15 K	1068.19
328.15 K	1065.36
333.15 K	1062.6
338.15 K	1059.87
343.15 K	1057.15
348.15 K	1054.42
353.15 K	1051.69

CC(=O)N(C)C [N,N-dimethylethanamide] + CCCCn1cc[n+](C)c1.[Cl-]
[1], x2 = 0
Settings	mass density [kg/m3]
303.15 K	931.85
308.15 K	927.26
313.15 K	922.66
318.15 K	918.06
323.15 K	913.44
328.15 K	908.81
333.15 K	904.16
338.15 K	899.53
343.15 K	894.87
348.15 K	890.19
353.15 K	885.51

CCCCn1cc[n+](C)c1.[Cl-] [1-butyl-3-methylimidazolium chloride]
[2]
Settings	mass density [kg/m3]
303.15 K, Metastable liquid	1079.41
308.15 K, Metastable liquid	1076.58
313.15 K, Metastable liquid	1073.78
318.15 K, Metastable liquid	1070.99
323.15 K, Metastable liquid	1068.19
328.15 K, Metastable liquid	1065.36
333.15 K, Metastable liquid	1062.6
338.15 K, Metastable liquid	1059.87
343.15 K, Liquid	1057.15
348.15 K, Liquid	1054.42
353.15 K, Liquid	1051.69

C[S+](C)[O-] [dimethyl sulfoxide] + CCCCn1cc[n+](C)c1.[Cl-]
[1], x2 = 0
Settings	mass density [kg/m3]
303.15 K	1090.29
308.15 K	1085.28
313.15 K	1080.3
318.15 K	1075.31
323.15 K	1070.32
328.15 K	1065.33
333.15 K	1060.34
338.15 K	1055.34
343.15 K	1050.35
348.15 K	1045.34
353.15 K	1040.33
